For 13 molecules, Kd results are on record in US20260116920A1, “HUMAN TRANSFERRIN RECEPTOR BINDING PEPTIDE” (PEPTIDREAM INC., priority 2021, published 2026).

Starred links: 1 amine or outer side, 2 acyl side, 3 side chain; linkers in the order of their positions; H or OH if unused. Positions of bridges follow the written chain, without caps; N, C: chain ends. Non-standard residues stand in square brackets, D forms with d. Residues, ends and D or L forms follow the SMILES beside them. Groups on a side chain read outwards from the residue. *: point of attachment. Trp(1-CH2COOH) = N[C@@H](Cc1cn(CC(=O)O)c2ccccc12)C(=O)O; Nle(6-morpholino) = N[C@@H](CCCCN1CCOCC1)C(=O)O; Phe(3-COOH) = N[C@@H](Cc1cccc(C(=O)O)c1)C(=O)O; NMePhe(3-Cl) = CN[C@@H](Cc1cccc(Cl)c1)C(=O)O; Piperazinyl(4-CH2COOH) = O=C(O)CN1CCN(*)CC1; 3Pal(6-NH2) = Nc1ccc(C[C@H](N)C(=O)O)cn1; NMeY = CN[C@@H](Cc1ccc(O)cc1)C(=O)O; NH(CH2CH2O)4Me = COCCOCCOCCOCCN*; 4Pal = N[C@@H](Cc1ccncc1)C(=O)O; PEG4 = NCCOCCOCCOCCOCCC(=O)O; Carboxymethyl = O=C(O)C*; CO = O=C([*:1])[*:2]; X4 = COCC(COC)N*

This assay has as its target T1, human transferrin receptor (hTfR) (Homo sapiens, UniProt P02786).
T1 construct: made in house
Nature of the assay: Evaluation of molecular interaction between transferrin receptor (hTfR) and peptide using surface plasmon resonance (SPR). The following applies: surface plasmon resonance, binding to hTfR; KD class symbol; read-out: SPR (KD value). The assay is classed as binding. A digest of the protocol: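 Single-cycle SPR kinetics, KD by least-squares sensorgram fitting, with peptide series of 100, 50, 25, 10 and 5 nM. Running buffer: 10 mM HEPES pH 8.0, 150 mM NaCl, 0.05% Tween 20, 0.1% BSA, 1.0% DMSO. Surface: hTfR dimer covalently coupled (EDC/NHS) onto Ni-NTA chip.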
A general note: In SPR one partner is held on a chip, and binding of the other changes the refractive index at the surface.

T1 sequence (P02786 89-760 limits assumed): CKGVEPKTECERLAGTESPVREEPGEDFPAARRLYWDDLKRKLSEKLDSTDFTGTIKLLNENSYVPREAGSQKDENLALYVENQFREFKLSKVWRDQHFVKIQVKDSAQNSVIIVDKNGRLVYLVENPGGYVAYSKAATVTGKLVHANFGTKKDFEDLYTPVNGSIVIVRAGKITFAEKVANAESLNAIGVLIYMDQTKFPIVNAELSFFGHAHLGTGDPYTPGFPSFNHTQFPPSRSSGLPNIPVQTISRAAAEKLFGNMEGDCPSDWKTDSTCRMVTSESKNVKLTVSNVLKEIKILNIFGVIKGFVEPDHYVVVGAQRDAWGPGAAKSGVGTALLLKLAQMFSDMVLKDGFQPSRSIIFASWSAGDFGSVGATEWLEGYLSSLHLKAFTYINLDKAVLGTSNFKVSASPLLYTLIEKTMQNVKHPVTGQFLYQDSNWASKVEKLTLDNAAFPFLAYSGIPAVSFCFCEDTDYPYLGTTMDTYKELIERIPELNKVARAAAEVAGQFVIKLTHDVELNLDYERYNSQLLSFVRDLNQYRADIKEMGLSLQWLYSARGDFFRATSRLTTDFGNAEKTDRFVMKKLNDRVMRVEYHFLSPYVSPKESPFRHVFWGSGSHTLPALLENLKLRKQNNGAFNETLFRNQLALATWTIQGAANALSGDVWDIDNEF

As a reminder, the Kd is the constant that tells how readily two partners part at equilibrium. For `CC[C@H](C)[C@@H]1NC(=O)[C@H](Cc2ccc(OCC(=O)O)cc2)NC(=O)[C@H](Cc2ccc(O)cc2)NC(=O)[C@H](CC(N)=O)NC(=O)[C@H](Cc2c[nH]c3ccccc23)NC(=O)[C@H](C(C)C)NC(=O)[C@H](Cc2cccc(Cl)c2)N(C)C(=O)[C@H](C(C)C)NC(=O)[C@H](C)NC(=O)CSC[C@@H](C(=O)NCCOCCOCCOCCOCCC(N)=O)NC(=O)[C@H](Cc2ccc(O)cc2)N(C)C(=O)[C@H](Cc2ccccc2)NC(=O)[C@H](CCCNC(=N)N)NC(=O)[C@H](CCC(=O)NCCOCCOCCOCCOC)NC(=O)[C@H]([C@@H](C)CC)NC1=O` [compound 113], the Kd lay in the range of 1 to 100 nM.

Consider `CC[C@H](C)[C@@H]1NC(=O)[C@H](Cc2ccc(OCC(=O)O)cc2)NC(=O)[C@H](Cc2ccc(O)cc2)NC(=O)[C@H](CC(N)=O)NC(=O)[C@H](Cc2c[nH]c3ccccc23)NC(=O)[C@H](C(C)C)NC(=O)[C@H](Cc2cccc(Cl)c2)N(C)C(=O)[C@H](C(C)C)NC(=O)[C@H](C)NC(=O)CSC[C@@H](C(=O)NCCOCCOCCOCCOCCC(N)=O)NC(=O)[C@H](Cc2ccc(O)cc2)N(C)C(=O)[C@H](Cc2cccc(C(=O)O)c2)NC(=O)[C@H](CCCNC(=N)N)NC(=O)[C@H](CCC(=O)NC(COC)COC)NC(=O)[C@H]([C@@H](C)CC)NC1=O` [compound 114] ({CH2CO}-AV[NMePhe(3-Cl)]VWNYY(Carboxymethyl)IIE(X4)R[Phe(3-COOH)][NMeY]C[PEG4]-NH2; thioether N-15), for which the Kd was under 1 nM.

In the case of `CC[C@H](C)[C@@H]1NC(=O)[C@H](Cc2ccc(OCC(=O)O)cc2)NC(=O)[C@H](Cc2ccc(O)cc2)NC(=O)[C@H](CC(N)=O)NC(=O)[C@H](Cc2cn(CC(=O)O)c3ccccc23)NC(=O)[C@H](C(C)C)NC(=O)[C@H](Cc2cccc(Cl)c2)N(C)C(=O)[C@H](C(C)C)NC(=O)[C@H](C)NC(=O)CSC[C@@H](C(=O)NCCOCCOCCOCCOCCC(N)=O)NC(=O)[C@H](Cc2ccc(O)cc2)N(C)C(=O)[C@H](Cc2ccccc2)NC(=O)[C@H](CCCCNC(=O)N2CCN(CC(=O)O)CC2)NC(=O)[C@H](CCC(=O)NCCOCCOCCOCCOC)NC(=O)[C@H]([C@@H](C)CC)NC1=O` [compound 115] ({CH2CO}-AV[NMePhe(3-Cl)]V[Trp(1-CH2COOH)]NYY(Carboxymethyl)IIE(NH(CH2CH2O)4Me)K([CO-Piperazinyl(4-CH2COOH)])F[NMeY]C[PEG4]-NH2; thioether N-15), the Kd fell in the range of 1 to 100 nM.

For the molecule `CC[C@H](C)[C@@H]1NC(=O)[C@H](Cc2ccc(OCC(=O)O)cc2)NC(=O)[C@H](Cc2ccc(O)cc2)NC(=O)[C@H](CC(N)=O)NC(=O)[C@H](Cc2c[nH]c3ccccc23)NC(=O)[C@H](C(C)C)NC(=O)[C@H](Cc2cccc(Cl)c2)N(C)C(=O)[C@H](C(C)C)NC(=O)[C@H](C)NC(=O)CSC[C@@H](C(=O)NCCOCCOCCOCCOCCC(N)=O)NC(=O)[C@H](Cc2ccc(O)cc2)N(C)C(=O)[C@H](Cc2ccccc2)NC(=O)[C@H](CCCCNC(=O)N2CCN(CC(=O)O)CC2)NC(=O)[C@H](CCC(=O)NCCOCCOCCOCCOC)NC(=O)[C@H]([C@@H](C)CC)NC1=O` [compound 116] ({CH2CO}-AV[NMePhe(3-Cl)]VWNYY(Carboxymethyl)IIE(NH(CH2CH2O)4Me)K([CO-Piperazinyl(4-CH2COOH)])F[NMeY]C[PEG4]-NH2; thioether N-15), the Kd was in the range of 1 to 100 nM.

On to `CC[C@H](C)[C@@H]1NC(=O)[C@H](Cc2ccc(OCC(=O)O)cc2)NC(=O)[C@H](Cc2ccc(N)nc2)NC(=O)[C@H](CC(N)=O)NC(=O)[C@H](Cc2cn(CC(=O)O)c3ccccc23)NC(=O)[C@H](C(C)C)NC(=O)[C@H](Cc2cccc(Cl)c2)N(C)C(=O)[C@H](C(C)C)NC(=O)[C@H](C)NC(=O)CSC[C@@H](C(=O)NCCOCCOCCOCCOCCC(N)=O)NC(=O)[C@H](Cc2ccc(O)cc2)N(C)C(=O)[C@H](Cc2ccncc2)NC(=O)[C@H](CCCNC(=N)N)NC(=O)[C@H](CCC(=O)NCCOCCOCCOCCOC)NC(=O)[C@H]([C@@H](C)CC)NC1=O` [compound 117], for which the Kd was in the range of 1 to 100 nM.

In the case of `CC[C@H](C)[C@@H]1NC(=O)[C@H](Cc2ccc(OCC(=O)O)cc2)NC(=O)[C@H](Cc2ccc(N)nc2)NC(=O)[C@H](CC(N)=O)NC(=O)[C@H](Cc2c[nH]c3ccccc23)NC(=O)[C@H](C(C)C)NC(=O)[C@H](Cc2cccc(Cl)c2)N(C)C(=O)[C@H](C(C)C)NC(=O)[C@H](C)NC(=O)CSC[C@@H](C(=O)NCCOCCOCCOCCOCCC(N)=O)NC(=O)[C@H](Cc2ccc(O)cc2)N(C)C(=O)[C@H](Cc2ccncc2)NC(=O)[C@H](CCCCNC(=O)N2CCN(CC(=O)O)CC2)NC(=O)[C@H](CCC(=O)NCCOCCOCCOCCOC)NC(=O)[C@H]([C@@H](C)CC)NC1=O` [compound 118] ({CH2CO}-AV[NMePhe(3-Cl)]VWN[3Pal(6-NH2)]Y(Carboxymethyl)IIE(NH(CH2CH2O)4Me)K([CO-Piperazinyl(4-CH2COOH)])[4Pal][NMeY]C[PEG4]-NH2; thioether N-15), the Kd fell in the range of 1 to 100 nM.

For the molecule `CC[C@H](C)[C@@H]1NC(=O)[C@H](Cc2ccc(OCC(=O)O)cc2)NC(=O)[C@H](Cc2ccc(O)cc2)NC(=O)[C@H](CC(N)=O)NC(=O)[C@H](Cc2cn(CC(=O)O)c3ccccc23)NC(=O)[C@H](C(C)C)NC(=O)[C@H](Cc2cccc(Cl)c2)N(C)C(=O)[C@H](C(C)C)NC(=O)[C@H](C)NC(=O)CSC[C@@H](C(=O)NCCOCCOCCOCCOCCC(N)=O)NC(=O)[C@H](Cc2ccc(O)cc2)N(C)C(=O)[C@H](Cc2ccccc2)NC(=O)[C@H](CCCCN2CCOCC2)NC(=O)[C@H](CCC(=O)NCCOCCOCCOCCOC)NC(=O)[C@H]([C@@H](C)CC)NC1=O` [compound 119] ({CH2CO}-AV[NMePhe(3-Cl)]V[Trp(1-CH2COOH)]NYY(Carboxymethyl)IIE(NH(CH2CH2O)4Me)[Nle(6-morpholino)]F[NMeY]C[PEG4]-NH2; thioether N-15), the Kd is under 1 nM.

`CC[C@H](C)[C@@H]1NC(=O)[C@H](Cc2ccc(OCC(=O)O)cc2)NC(=O)[C@H](Cc2ccc(O)cc2)NC(=O)[C@H](CC(N)=O)NC(=O)[C@H](Cc2c[nH]c3ccccc23)NC(=O)[C@H](C(C)C)NC(=O)[C@H](Cc2cccc(Cl)c2)N(C)C(=O)[C@H](C(C)C)NC(=O)[C@H](C)NC(=O)CSC[C@@H](C(=O)NCCOCCOCCOCCOCCC(N)=O)NC(=O)[C@H](Cc2ccc(O)cc2)N(C)C(=O)[C@H](Cc2ccccc2)NC(=O)[C@H](CCCCN2CCOCC2)NC(=O)[C@H](CCC(=O)NCCOCCOCCOCCOC)NC(=O)[C@H]([C@@H](C)CC)NC1=O` [compound 120]: the Kd is 1 to 100 nM.

With `CC[C@H](C)[C@@H]1NC(=O)[C@H](Cc2ccc(OCC(=O)O)cc2)NC(=O)[C@H](Cc2ccc(O)cc2)NC(=O)[C@H](CC(N)=O)NC(=O)[C@H](Cc2c[nH]c3ccccc23)NC(=O)[C@H](C(C)C)NC(=O)[C@H](Cc2cccc(Cl)c2)N(C)C(=O)[C@H](C(C)C)NC(=O)[C@H](C)NC(=O)CSC[C@@H](C(=O)NCCOCCOCCOCCOCCC(N)=O)NC(=O)[C@H](Cc2ccc(O)cc2)N(C)C(=O)[C@H](Cc2ccccc2)NC(=O)[C@H](CCCCN)NC(=O)[C@H](CCC(=O)NCCOCCOCCOCCOC)NC(=O)[C@H]([C@@H](C)CC)NC1=O` [compound 121] ({CH2CO}-AV[NMePhe(3-Cl)]VWNYY(Carboxymethyl)IIE(NH(CH2CH2O)4Me)KF[NMeY]C[PEG4]-NH2; thioether N-15), the Kd fell in the range of 1 to 100 nM.

Take `CC[C@H](C)[C@@H]1NC(=O)[C@H](Cc2ccc(OCC(=O)O)cc2)NC(=O)[C@H](Cc2ccc(O)cc2)NC(=O)[C@H](CC(N)=O)NC(=O)[C@H](Cc2c[nH]c3ccccc23)NC(=O)[C@H](C(C)C)NC(=O)[C@H](Cc2cccc(Cl)c2)N(C)C(=O)[C@H](C(C)C)NC(=O)[C@H](C)NC(=O)CSC[C@@H](C(=O)NCCOCCOCCOCCOCCC(N)=O)NC(=O)[C@H](Cc2ccc(O)cc2)N(C)C(=O)[C@H](Cc2ccccc2)NC(=O)[C@H](CCCCN(C)C)NC(=O)[C@H](CCC(=O)NCCOCCOCCOCCOC)NC(=O)[C@H]([C@@H](C)CC)NC1=O` [compound 122]: the Kd lay in the range of 1 to 100 nM.

For `CC[C@H](C)[C@@H]1NC(=O)[C@H](Cc2ccc(OCC(=O)O)cc2)NC(=O)[C@H](Cc2ccc(O)cc2)NC(=O)[C@H](CC(N)=O)NC(=O)[C@H](Cc2c[nH]c3ccccc23)NC(=O)[C@H](C(C)C)NC(=O)[C@H](Cc2cccc(Cl)c2)N(C)C(=O)[C@H](C(C)C)NC(=O)[C@H](C)NC(=O)CSC[C@@H](C(=O)NCCOCCOCCOCCOCCC(N)=O)NC(=O)[C@H](Cc2ccc(O)cc2)N(C)C(=O)[C@H](Cc2ccccc2)NC(=O)[C@H](CCC(N)=O)NC(=O)[C@H](CCC(=O)NCCOCCOCCOCCOC)NC(=O)[C@H]([C@@H](C)CC)NC1=O` [compound 123] ({CH2CO}-AV[NMePhe(3-Cl)]VWNYY(Carboxymethyl)IIE(NH(CH2CH2O)4Me)QF[NMeY]C[PEG4]-NH2; thioether N-15), the Kd was 1 to 100 nM.

For `CC[C@H](C)[C@@H]1NC(=O)[C@H](Cc2ccc(OCC(=O)O)cc2)NC(=O)[C@H](Cc2ccc(O)cc2)NC(=O)[C@H](CC(N)=O)NC(=O)[C@H](Cc2c[nH]c3ccccc23)NC(=O)[C@H](C(C)C)NC(=O)[C@H](Cc2cccc(Cl)c2)N(C)C(=O)[C@H](C(C)C)NC(=O)[C@H](C)NC(=O)CSC[C@@H](C(=O)NCCOCCOCCOCCOCCC(N)=O)NC(=O)[C@H](Cc2ccc(O)cc2)N(C)C(=O)[C@H](CCC(=O)NCCOCCOCCOCCOC)NC(=O)[C@H](CCCNC(=N)N)NC(=O)[C@H](CCC(=O)NCCOCCOCCOCCOC)NC(=O)[C@H]([C@@H](C)CC)NC1=O` [compound 124] ({CH2CO}-AV[NMePhe(3-Cl)]VWNYY(Carboxymethyl)IIE(NH(CH2CH2O)4Me)RE(NH(CH2CH2O)4Me)[NMeY]C[PEG4]-NH2; thioether N-15), the Kd is 1 to 100 nM.

As to `CC[C@H](C)[C@@H]1NC(=O)[C@H](Cc2ccc(OCC(=O)O)cc2)NC(=O)[C@H](Cc2ccc(O)cc2)NC(=O)[C@H](CC(N)=O)NC(=O)[C@H](Cc2c[nH]c3ccccc23)NC(=O)[C@H](C(C)C)NC(=O)[C@H](Cc2cccc(Cl)c2)N(C)C(=O)[C@H](C(C)C)NC(=O)[C@H](C)NC(=O)CSC[C@@H](C(=O)NCC(=O)N[C@H](CO)C(=O)N[C@H](CO)C(=O)N[C@H](CO)C(=O)N[C@H](CO)C(=O)N[C@H](CO)C(N)=O)NC(=O)[C@H](Cc2ccc(O)cc2)N(C)C(=O)[C@H](CCC(=O)NCCOCCOCCOCCOC)NC(=O)[C@H](CCCNC(=N)N)NC(=O)[C@H](CCC(=O)NCCOCCOCCOCCOC)NC(=O)[C@H]([C@@H](C)CC)NC1=O` [compound 125], the Kd was in the range of 1 to 100 nM.
